This experiment deals with T1, Alpha-1,4-glucan:maltose-1-phosphate maltosyltransferase (Mycobacterium tuberculosis (strain ATCC 25618 / H37Rv), UniProt P9WQ17).
T1 sequence (P9WQ17 whole entry): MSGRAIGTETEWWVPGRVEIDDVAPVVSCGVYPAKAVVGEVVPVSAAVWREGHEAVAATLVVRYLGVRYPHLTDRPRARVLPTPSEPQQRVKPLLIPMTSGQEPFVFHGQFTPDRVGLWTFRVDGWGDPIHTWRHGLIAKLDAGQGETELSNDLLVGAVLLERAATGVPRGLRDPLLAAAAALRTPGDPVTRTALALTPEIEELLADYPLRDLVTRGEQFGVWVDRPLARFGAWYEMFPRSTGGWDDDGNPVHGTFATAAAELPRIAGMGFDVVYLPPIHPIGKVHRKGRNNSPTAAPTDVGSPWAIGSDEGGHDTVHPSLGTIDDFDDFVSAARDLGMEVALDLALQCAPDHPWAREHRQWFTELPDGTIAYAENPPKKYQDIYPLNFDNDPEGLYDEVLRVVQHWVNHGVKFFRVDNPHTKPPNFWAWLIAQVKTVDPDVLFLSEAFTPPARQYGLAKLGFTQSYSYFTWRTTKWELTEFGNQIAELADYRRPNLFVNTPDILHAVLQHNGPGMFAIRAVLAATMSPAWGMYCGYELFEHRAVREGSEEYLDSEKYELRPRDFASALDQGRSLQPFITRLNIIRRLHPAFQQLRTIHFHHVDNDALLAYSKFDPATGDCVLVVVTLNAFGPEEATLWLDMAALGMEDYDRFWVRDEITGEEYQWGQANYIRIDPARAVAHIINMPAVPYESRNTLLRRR
Description: Inhibition of recombinant Mycobacterium tuberculosis H37Rv GlgE expressed in Escherichia coli BL21 (DE3) rosetta cells using maltose-1-phosphate as substrate measured every 5 secs for 30 mins by purine nucleoside phosphorylase-coupled assay.

pIC50: −log10 of the molar value.

As to `O=P(O)(O)C[C@H]1O[C@H](CO)[C@@H](O[C@H]2O[C@H](CO)[C@@H](O)[C@H](O)[C@H]2O)[C@H](O)[C@H]1O`, the pIC50 (usually the IC50 on a negative log10 scale, so that one unit is a factor of ten) is 3.64.

Values taken from ChEMBL document CHEMBL3112529, “Synthesis of a C-phosphonate mimic of maltose-1-phosphate and inhibition studies on Mycobacterium tuberculosis GlgE” (Bioorg Med Chem, 2014).
